Laboratory results taken from ChEMBL document CHEMBL1134059, “Synthesis and antifungal activities of novel 1,3-beta-D-glucan synthase inhibitors. Part 2” (Bioorg Med Chem Lett, 2001).
In brackets after ≈: the same amount, converted by molar mass. Numbered stars: 1 amine (or outer) side, 2 acyl side, 3 side chain; on linkers, the order of the positions; unused ones are H or OH. Bridge positions count the residues as written; N and C are the ends. Square brackets hold non-standard residues; d marks the D form. Peptide text beside a SMILES is read from it. * marks the point of attachment. pTerphenylCO(4''-OnC5H11) = CCCCCOc1ccc(-c2ccc(-c3ccc(C(=O)*)cc3)cc2)cc1; Orn(4R-OH,5R-OH) = O=C([C@H](C[C@@H](O)[C@@H](O)N[*:3])N[*:1])[*:2]; hTyr(3S-OH,4S-OH) = N[C@H](C(=O)O)[C@H](O)[C@@H](O)c1ccc(O)cc1; Pro(3S-OH,4S-Me) = C[C@H]1CN[C@H](C(=O)O)[C@H]1O; Gln(3R-OH) = NC(=O)C[C@@H](O)[C@H](N)C(=O)O; X1 = CCCCCCCCCCCCC[C@H](CC(=O)[*:1])O[*:2]; Pro(3S-OH) = O=C(O)[C@H]1NCC[C@@H]1O; d(aThr) = C[C@@H](O)[C@@H](N)C(=O)O; Hyp = O=C(O)[C@@H]1C[C@@H](O)CN1; Orn = NCCC[C@H](N)C(=O)O

Key:
Mus musculus [1] = species: Mus musculus; assay: Hepatotoxicity using inclusion-body formation test in hepatocytes of mice; format: functional, Hepatocyte
Candida albicans [2] = assay: In vitro antifungal activity against Candida albicans CY1002; format: functional, organism-based
Mus musculus [3] = assay: In vivo efficacy against Aspergillus fumigatus CF1083 1E4 conidia/g for pulmonary aspergillosis in mice after iv treatment on day 14; format: functional; conditions: 336 h
Beta-1,3-glucan synthase = Beta-1,3-glucan synthase (Candida albicans, UniProt O13428); assay: In vitro inhibitory activity against Beta glucan synthase
Mus musculus [4] = assay: In vivo efficacy against Candida albicans CY1002 5E6 cells for systemic candidiasis in mice after iv treatment on day 7; format: functional; conditions: CY1002 5E6, iv, 168 h
Candida albicans [5] = assay: In vitro antifungal activity against Candida albicans CY1002 using 80 percent serum; format: functional, organism-based
Candida albicans [6] = assay: Antifungal activity against Candida albicans KB fluconazole resistant strain.; format: functional
Pichia kudriavzevii = assay: Antifungal activity against Candida krusei ATCC 20579; format: functional
Candida tropicalis = assay: Antifungal activity against Candida tropicalis ATCC 13803; format: functional
Candida albicans [7] = assay: Antifungal activity against Candida albicans ATCC 48130; format: functional
Scedosporium boydii = assay: Antifungal activity against Scedosporium […] IFM40731N.; format: functional
Aspergillus fumigatus = assay: Antifungal activity against Aspergillus fumigatus MTU06002; format: functional
Nakaseomyces glabratus = assay: Antifungal activity against Candida glabrata ATCC 2001; format: functional
Lomentospora prolificans = assay: Antifungal activity against Scedosporium prolificans ATCC 20054; format: functional

Sequence of Beta-1,3-glucan synthase (O13428 whole entry): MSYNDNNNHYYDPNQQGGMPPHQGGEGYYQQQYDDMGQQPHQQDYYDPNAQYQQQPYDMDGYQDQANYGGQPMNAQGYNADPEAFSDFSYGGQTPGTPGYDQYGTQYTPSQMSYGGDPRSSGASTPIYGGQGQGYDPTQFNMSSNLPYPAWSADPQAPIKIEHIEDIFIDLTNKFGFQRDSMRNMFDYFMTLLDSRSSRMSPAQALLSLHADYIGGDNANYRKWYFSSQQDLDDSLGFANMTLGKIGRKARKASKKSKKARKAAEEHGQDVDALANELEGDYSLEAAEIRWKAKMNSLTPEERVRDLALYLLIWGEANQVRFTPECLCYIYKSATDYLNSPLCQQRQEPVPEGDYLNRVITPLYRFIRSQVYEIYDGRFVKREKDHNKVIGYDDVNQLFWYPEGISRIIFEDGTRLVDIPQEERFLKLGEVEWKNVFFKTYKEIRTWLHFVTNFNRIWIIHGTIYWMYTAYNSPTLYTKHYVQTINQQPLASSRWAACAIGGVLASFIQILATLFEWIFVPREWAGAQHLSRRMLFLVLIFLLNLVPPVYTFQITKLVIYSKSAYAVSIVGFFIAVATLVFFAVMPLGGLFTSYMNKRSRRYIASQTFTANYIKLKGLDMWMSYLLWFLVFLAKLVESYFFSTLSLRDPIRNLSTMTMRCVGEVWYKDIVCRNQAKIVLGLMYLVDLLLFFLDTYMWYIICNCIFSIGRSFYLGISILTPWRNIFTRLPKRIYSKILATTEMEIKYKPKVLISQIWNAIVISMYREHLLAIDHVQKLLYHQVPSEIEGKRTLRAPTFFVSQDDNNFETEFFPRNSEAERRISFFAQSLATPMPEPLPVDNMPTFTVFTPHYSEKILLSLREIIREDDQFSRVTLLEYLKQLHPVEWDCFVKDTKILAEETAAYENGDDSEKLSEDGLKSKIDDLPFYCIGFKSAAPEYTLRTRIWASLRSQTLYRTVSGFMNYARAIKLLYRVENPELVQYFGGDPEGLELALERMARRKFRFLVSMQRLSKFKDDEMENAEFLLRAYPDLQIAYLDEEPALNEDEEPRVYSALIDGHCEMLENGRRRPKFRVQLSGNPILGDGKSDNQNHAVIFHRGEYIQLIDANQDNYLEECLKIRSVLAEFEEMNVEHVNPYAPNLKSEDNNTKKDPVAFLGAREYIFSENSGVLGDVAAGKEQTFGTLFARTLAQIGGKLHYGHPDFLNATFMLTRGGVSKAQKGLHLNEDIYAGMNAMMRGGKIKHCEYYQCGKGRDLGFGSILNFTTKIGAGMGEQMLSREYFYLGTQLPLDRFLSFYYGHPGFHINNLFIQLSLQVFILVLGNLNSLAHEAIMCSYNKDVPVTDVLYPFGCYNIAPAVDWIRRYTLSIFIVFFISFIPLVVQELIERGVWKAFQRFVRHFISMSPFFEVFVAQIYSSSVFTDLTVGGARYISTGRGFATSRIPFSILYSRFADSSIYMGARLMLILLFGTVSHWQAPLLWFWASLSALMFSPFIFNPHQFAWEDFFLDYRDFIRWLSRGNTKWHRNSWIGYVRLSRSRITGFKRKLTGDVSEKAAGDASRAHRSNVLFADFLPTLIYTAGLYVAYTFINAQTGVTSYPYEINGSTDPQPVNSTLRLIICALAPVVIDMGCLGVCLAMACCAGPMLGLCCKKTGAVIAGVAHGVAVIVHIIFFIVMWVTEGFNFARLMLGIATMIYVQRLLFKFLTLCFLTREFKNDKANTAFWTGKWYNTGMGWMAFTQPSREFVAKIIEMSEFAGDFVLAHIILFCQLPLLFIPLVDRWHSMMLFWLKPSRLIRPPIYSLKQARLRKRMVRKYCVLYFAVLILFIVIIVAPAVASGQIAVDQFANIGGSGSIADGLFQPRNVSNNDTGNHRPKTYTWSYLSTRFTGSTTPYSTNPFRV

Row | Structure (SMILES) | Observed at (Mus musculus [1]) [µg/mL] | IC50 (Candida albicans [2]) [µg/mL] | ED50 (Mus musculus [3]) [mg/kg] | IC50 (Beta-1,3-glucan synthase) [nM] | ED50 (Mus musculus [4]) [mg/kg] | IC50 (Candida albicans [5]) [µg/mL] | MIC (Candida albicans [6]) [µg/mL] | MIC (Pichia kudriavzevii) [µg/mL] | MIC (Candida tropicalis) [µg/mL] | MIC (Candida albicans [7]) [µg/mL] | MIC (Scedosporium boydii) [µg/mL] | MIC (Aspergillus fumigatus) [µg/mL] | MIC (Nakaseomyces glabratus) [µg/mL] | MIC (Lomentospora prolificans) [µg/mL]
1 | CCCCCCCCCCCCC[C@@H]1CC(=O)N[C@H]([C@@H](C)O)C(=O)N[C@H](C)C(=O)N[C@@H](Cc2ccc(O)cc2)C(=O)N[C@@H](C(C)C)C(=O)N2C[C@H](O)C[C@H]2C(=O)N[C@H]([C@@H](C)O)C(=O)N[C@@H]([C@@H](C)O)C(=O)N2CC[C@H](O)[C@H]2C(=O)N[C@@H]([C@H](O)CC(N)=O)C(=O)NCC(=O)N[C@H]([C@@H](C)O)C(=O)N[C@@H](CCCN(CCN)CCN)C(=O)O1 | 10 | 0.1 (≈ 0.0617 µM) | 13.3 | 1.4 | 0.05 | 0.42 (≈ 0.259 µM) |  |  |  |  |  |  |  | 
2 | CCCCCCCCCCCCC[C@@H]1CC(=O)N[C@H]([C@@H](C)O)C(=O)N[C@H](C)C(=O)N[C@@H](Cc2ccc(O)cc2)C(=O)N[C@@H](C(C)C)C(=O)N2C[C@H](O)C[C@H]2C(=O)N[C@H]([C@@H](C)O)C(=O)N[C@@H]([C@@H](C)O)C(=O)N2CC[C@H](O)[C@H]2C(=O)N[C@@H]([C@H](O)CC(N)=O)C(=O)NCC(=O)N[C@H]([C@@H](C)O)C(=O)N[C@@H](CCCNC(=O)[C@H](N)CCCN)C(=O)O1 | 30 | 0.12 (≈ 0.0728 µM) |  | 3.6 | 0.1 | 0.33 (≈ 0.2 µM) |  |  |  |  |  |  |  | 
3 | CCCCCOc1ccc(-c2ccc(-c3ccc(C(=O)N[C@@H]4C[C@@H](O)[C@@H](O)NC(=O)C5[C@@H](OC)[C@@H](OC)CN5C(=O)[C@H]([C@@H](C)O)NC(=O)[C@H]([C@H](O)[C@@H](O)c5ccc(O)cc5)NC(=O)[C@@H]5C[C@@H](O)CN5C(=O)[C@H]([C@@H](C)O)NC4=O)cc3)cc2)cc1 (stereo partly specified) |  |  |  | 18 |  |  |  |  |  |  |  |  |  | 
4 | CCCCCCCCCCCCC[C@@H]1CC(=O)N[C@H]([C@@H](C)O)C(=O)N[C@H](C)C(=O)N[C@@H](Cc2ccc(O)cc2)C(=O)N[C@@H](C(C)C)C(=O)N2C[C@H](O)C[C@H]2C(=O)N[C@H]([C@@H](C)O)C(=O)N[C@@H]([C@@H](C)O)C(=O)N2CC[C@H](O)[C@H]2C(=O)N[C@@H]([C@H](O)CC(N)=O)C(=O)NCC(=O)N[C@H]([C@@H](C)O)C(=O)N[C@@H](CCCN(CCCN)C(=O)[C@H](CCCN)N(CCN)CCN)C(=O)O1 | 100 | 0.45 (≈ 0.251 µM) | 8.6 | 0.28 | 0.08 | 0.31 (≈ 0.173 µM) | 0.35 (≈ 0.195 µM) | 0.31 (≈ 0.173 µM) | 0.63 (≈ 0.352 µM) | 0.41 (≈ 0.229 µM) | 0.35 (≈ 0.195 µM) | 0.37 (≈ 0.207 µM) | 1 (≈ 0.558 µM) | 0.38 (≈ 0.212 µM)
5 | CCCCCOc1ccc(-c2ccc(-c3ccc(C(=O)N[C@H]4C[C@@H](O)[C@@H](O)NC(=O)[C@@H]5[C@@H](O)[C@@H](C)CN5C(=O)[C@H]([C@@H](C)O)NC(=O)[C@H]([C@H](O)[C@@H](O)c5ccc(O)cc5)NC(=O)[C@@H]5C[C@@H](O)CN5C(=O)[C@H]([C@@H](C)O)NC4=O)cc3)cc2)cc1 ({pTerphenylCO(4''-OnC5H11)}-[Orn(4R-OH,5R-OH)]T[Hyp][hTyr(3S-OH,4S-OH)]T[Pro(3S-OH,4S-Me)]; lactam 1-C) [listing 1 of 2 here] |  | 0.014 (≈ 0.0123 µM) |  |  |  | 0.55 (≈ 0.482 µM) |  |  |  |  |  |  |  | 
6 | CCCCCOc1ccc(-c2ccc(-c3ccc(C(=O)N[C@H]4C[C@@H](O)[C@@H](O)NC(=O)[C@@H]5[C@@H](O)[C@@H](C)CN5C(=O)[C@H]([C@@H](C)O)NC(=O)[C@H]([C@H](O)[C@@H](O)c5ccc(O)cc5)NC(=O)[C@@H]5C[C@@H](O)CN5C(=O)[C@H]([C@@H](C)O)NC4=O)cc3)cc2)cc1 ({pTerphenylCO(4''-OnC5H11)}-[Orn(4R-OH,5R-OH)]T[Hyp][hTyr(3S-OH,4S-OH)]T[Pro(3S-OH,4S-Me)]; lactam 1-C) [listing 2 of 2 here] | 1 |  |  |  | 0.22 |  |  |  |  |  |  |  |  | 
7 | CCCCCCCCCCCCC[C@@H]1CC(=O)N[C@H]([C@@H](C)O)C(=O)N[C@H](C)C(=O)N[C@@H](Cc2ccc(O)cc2)C(=O)N[C@@H](C(C)C)C(=O)N2C[C@H](O)C[C@H]2C(=O)N[C@H]([C@@H](C)O)C(=O)N[C@@H]([C@@H](C)O)C(=O)N2CC[C@H](O)[C@H]2C(=O)N[C@@H]([C@H](O)CC(N)=O)C(=O)NCC(=O)N[C@H]([C@@H](C)O)C(=O)N[C@@H](CCCN)C(=O)O1 [FR-901469] ([d(aThr)][dA]YV[Hyp][d(aThr)]T[Pro(3S-OH)][Gln(3R-OH)]G[d(aThr)][Orn]; linker N-C via X1) | 10 | 0.07 (≈ 0.0456 µM) | > 15 | 8.5 | 0.22 | 0.54 (≈ 0.352 µM) |  |  |  |  |  |  |  | 
